System: Paracoccus sp. strain TSN18E7
Assay: Evaluation of growth ability against metabolic analogue β-ionone (colony formation on plate culture medium)
Type: cell-based
Conditions: plate culture medium of Table 2 with β-ionone in DMSO at final 0.01, 1, 2, 5 and 10 mM; 5 days at 25° C.; colonies visually counted
Description: bacterium Paracoccus sp. strain TSN18E7 was inoculated in 5 mL of liquid medium shown in Table 1, and cultured for one (1) day at 25° C. under shaking and 150 rpm. The culture solution was diluted in a culture medium shown in Table 1, and spread on a plate culture medium having a composition shown in Table 2 supplemented with β-ionone (Aldrich) dissolved in dimethylsulfoxide (DMSO). β-ionone was supplemented at final concentrations of 0.01, 1, 2, 5 and 10 mM. Then the plate culture medium on which strain TSN18E7 was spread was cultured for 5 days at 25° C. Appearing colonies were visually counted and evaluated for growth ability of strain TSN18E7 for each concentration of β-ionone. The strain TSN18E7 inhibited growth in the presence of β-ionone of 1 mM or more, and formation of colony was not observed. We concluded that for separation of β-ionone resistant strain, suitable β-ionone concentration in culture is 1 mM in final concentration.

## CC(=O)/C=C/C1=C(C)CCCC1(C)C [β-ionone]
  β-ionone concentration at which growth of the strain is inhibited and formation of colony is not observed: ≥ 1 mM

Source: patent publication US8221997B2, “Microorganism and method for producing carotenoid using the same” (Tosoh Corporation, priority 2005, dated 2012)
